Measured values: US11051514B2, “Antifungal compounds” (Mycovia Pharmaceuticals, Inc., priority 2015, dated 2021)

Experiments:
[1] = test system: Septoria tritici (SEPTTR); assay: Evaluation of fungicidal activity: leaf blotch of wheat, disease control on wheat seedlings; type: in vivo; details: for 3DC % control / 3DP % Control: wheat (variety Yuma) seedlings; for fungicidal activity against the fungi responsible for leaf blotch of wheat (Septoria tritici): in comparison with example 5 of U.S. Pat. No. 8,748,461
Method: Example 3: Evaluation of Fungicidal Activity: Leaf Blotch of Wheat (Mycosphaerella graminicola; Anamorph: Septoria tritici; Bayer code […]) Technical grades of materials were dissolved in acetone, which were then mixed with nine volumes of water containing 110 ppm Triton X-100. The fungicide solutions were applied onto wheat seedlings using an automated booth sprayer to run-off. All sprayed plants were allowed to air dry prior to further handling. Wheat plants (variety Yuma) were grown from seed in a greenhouse in 50% mineral soil/50% soil-less Metro mix until the first leaf was fully emerged, with 7-10 seedlings per pot. These plants were inoculated with an aqueous spore suspension of Septoria tritici either prior to or after fungicide treatments. After inoculation the plants were kept in 100% relative humidity (one day in a dark dew chamber followed by two to three days in a lighted dew chamber at 20° C.) to permit spores to germinate and infect the leaf. The plants were then transferred to a greenhouse set at 20° C. for disease to develop. When disease symptoms were fully expressed on the 1st leaves of untreated plants, infection levels were assessed on a scale of 0 to 100 percent disease severity. Percent disease control was calculated using the ratio of disease severity on treated plants relative to untreated plants.

[2] = Log D partition coefficient, CHI method; type: physicochemical
Method: The Log D partition coefficient was measured using the CHI method.

[3] = Thermodynamic water solubility; type: physicochemical

Row | SMILES | 3DC % control ([1]; 6.25 g/ha) [%] | 3DC % control ([1]; 25 g/ha) [%] | 3DC % control ([1]; 100 g/ha) [%] | 3DC % control ([1]; rate g/ha) [%] | 3DP % Control ([1]; 1.56 g/ha) [%] | 3DP % Control ([1]; 6.25 g/ha) [%] | 3DP % Control ([1]; 25 g/ha) [%] | 3DP % Control ([1]; 100 g/ha) [%] | fungicidal activity against the fungi responsible for leaf blotch of wheat (Septoria tritici) [1] | chromatographic logD [2] | H2O solubility (ppm) (thermodynamic) [3]
1 | N#Cc1ccc(Oc2ccc(C(F)(F)C(O)(Cn3cncn3)c3ccc(F)cc3F)nc2)cc1 (stereo not drawn) [Example 1, 4-((6-(2-(2,4-difluorophenyl)-1,1-difluoro-2-hydroxy-3-(1H-1,2,4-triazol-1-yl)propyl)pyridin-3-yl)oxy)benzonitrile] | 100 | 100 | 100 | 99 | 96 | 96 | 96 | 100 | improved fungicidal activity | 2.9 | 37.33
2 | N#Cc1ccc(Oc2ccc(C(F)(F)C(O)(Cn3ncnc3S)c3ccc(F)cc3F)nc2)cc1 (stereo not drawn) [Example 2, 4-((6-(2-(2,4-difluorophenyl)-1,1-difluoro-2-hydroxy-3-(5-thioxo-4,5-dihydro-1H-1,2,4-triazol-1-yl)propyl)pyridin-3-yl)oxy)benzonitrile] | 94 | 99 | 100 | 80 | 94 | 98 | 100 | 100 | improved fungicidal activity | 2.83 | 23.04
3 | N#Cc1ccc(Oc2ccc(C(F)(F)C(O)(Cn3cnnn3)c3ccc(F)cc3F)nc2)cc1 (stereo not drawn) [Example 5*, 4-(6-(2-(2,4-difluorophenyl)-1,1-difluoro-2-hydroxy-3-(1H-tetrazol-1-yl)propyl)pyridin-3-yloxy)benzonitile, reference compound] | 34 | 47 | 58 | 22 | 22 | 36 | 50 | 64 |  | 3.02 | 28.39
4 | OC(Cn1cncn1)(c1ccc(F)cc1F)C(F)(F)c1ccc(OCc2cccc(F)c2F)cn1 (stereo not drawn) [Example 45*, reference compound] | 86 | 85 | 86 | 78 | 58 | 89 | 93 | 95 |  | 3.32 | 5.15
